EC50 data for 20 compounds are collected here from patent publication US9206200B2, “N-linked lactam M1 receptor positive allosteric mogulators” (Merck Sharp & Dohme Corp., priority 2011, dated 2015).

Structures are written as SMILES.

In one test the target is T1, acetylcholine muscarinic M1 receptor (Homo sapiens, UniProt P11229).
T1 construct: expressed in transfected cells; host or cells: CHOnfat cells (CHO cells with an NFAT reporter) expressing hM1, kept under Geneticin selection
T1 sequence (P11229 1-460): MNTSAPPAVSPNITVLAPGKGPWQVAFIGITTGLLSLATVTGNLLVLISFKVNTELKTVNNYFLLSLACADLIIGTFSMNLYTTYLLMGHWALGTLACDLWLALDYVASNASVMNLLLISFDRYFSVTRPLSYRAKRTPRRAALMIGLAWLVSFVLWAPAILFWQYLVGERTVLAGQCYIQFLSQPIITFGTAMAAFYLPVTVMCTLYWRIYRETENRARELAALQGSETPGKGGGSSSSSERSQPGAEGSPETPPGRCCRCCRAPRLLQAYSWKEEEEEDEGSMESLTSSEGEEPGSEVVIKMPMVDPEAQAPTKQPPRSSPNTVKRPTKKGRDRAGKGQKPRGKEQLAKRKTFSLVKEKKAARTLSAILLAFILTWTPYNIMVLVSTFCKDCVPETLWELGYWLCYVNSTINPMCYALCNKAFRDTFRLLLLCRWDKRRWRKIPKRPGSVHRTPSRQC
As to the kind of experiment: muscarinic FLIPR assay: intracellular calcium in CHOnfat/hM1 cells, potentiation of EC20 acetylcholine. The class given is cell-based. The note with it: Table 1; CHOnfat/hM1 cells, FLIPR, EC20 acetylcholine (3 nM final); read-out: M1 Pot. The method, then: The assay studies the effect of one or several concentrations of test compounds on basal or acetylcholine-stimulated Ca^2+ levels using FLIPR.
Compounds are prepared and subjected to a preincubation period of […]. Thereafter, a single EC20 concentration of acetylcholine is added to each well (3 nM final). The intracellular Ca^2+ level of each sample is measured and compared to an acetylcholine control to determine any modulatory activity.
Cells: CHOnfat/hM1, hM2, hM3 or hM4 cells are plated 24 hr before the assay at a density of 18,000 cells/well (100 μL) in a 384 well plate. CHOnfat/hM1 and CHOnfat/hM3 Growth Medium: 90% DMEM (Hi Glucose); 10% HI FBS; 2 mM L-glutamine; 0.1 mM NEAA; Pen-Strep; and 1 mg/ml Geneticin, are added. For M2Gqi5CHOnfat and M4Gqi5CHOnfat cells, an additional 600 ug/ml hygromycin is added.
Equipment: 384 well plate, 120 μl, addition plate; 96-well Whatman 2 ml Uniplate Incubator, 37° C., 5% CO2; Skatron EMBLA-384 Plate Washer; Multimek Pipetting System; Genesis Freedom 200 System; Mosquito System; Temo Nanolitre Pipetting System; and FLIPR^384 Fluorometric Imaging Plate Reader System are used.
Buffers. Assay Buffer: Hanks Balanced Salt Solution, with 20 mM Hepes, 2.5 mM Probenecid (Sigma P-8761) first dissolved in 1 N NaOH, 1% Bovine Serum Albumin (Sigma A-9647). Dye Loading Buffer: Assay Buffer plus 1% Fetal Bovine Serum and Fluo-4AM/Pluronic Acid Mixture. 2 mM Fluo-4AM ester stock in DMSO (Molecular Probes F-14202) Concentration of 2 μM in buffer for a final concentration of 1 μM in Assay. 20% Pluronic Acid Solution stock, with concentration of 0.04% in Buffer, 0.02% in Assay.
65 μL of 2 mM Fluo-4AM are mixed with 130 μL of 20% Pluronic Acid. The resulting solution and 650 μL FBS is added to the assay buffer for a total volume of 65 mL. Positive Controls: 4-Br-A23187: 10 mM in DMSO; final concentration 10 μM. Acetylcholine: 10 mM in water, working stock at both 20 μM and 30 μM in assay buffer, final concentration of 10 μM. This is used to check the maximum stimulation of the CHOK1/hM1 cells. 20 μM (2×) acetylcholine is added in the preincubation part of the assay, and the 30 μM (3×) stock is added in the second part. (EC20)Acetylcholine: 10 mM in water, working stock of 9 nM (3×), and final concentration in assay is 3 nM. This is used after the preincubation with test compounds. Addition of the EC20 Acetylcholine to each well with a test compound will ascertain any modulator activity. 24 wells contain 3 nM Acetylcholine alone as a control.
Determining Activity of Putative Compounds:
Screening Plate Compounds are titrated in 96-well plates (columns 2-11), 100% DMSO, started at a concentration of 15 mM (150× stock concentration), and 3-fold serial dilutions using Genesis Freedom200 System. Four 96-well plates are combined into a 384-well plate using Mosquito Nanolitre Pipetting System by transferring 1 μl of serial diluted compounds to each well, and 1 mM acetylcholine (100× stock concentration) were added as a control. Using Temo, 49 μl assay buffer is added to each well of the 384-well plate right before assay.
In a 96-well Whatman 2 ml Uniplate, 9 nM Acetylcholine (3×) is pipetted into wells corresponding to the screening compounds, and into control wells. The 30 μM acetylcholine control (3×) is added into control wells, and the 3× agonist plate is transferred into a 384 well plate.
Cells are washed three times with 100 μL of buffer, leaving […] of buffer in each well. Using Multimek, 30 μL of Dye Loading Buffer is added into each well and incubated at 37° C., 5% CO2 for up to one hr.
After 60 min, the cells are washed three times with 100 μL of buffer, leaving 30 μL of buffer in each well. The cell plate, screening plate, and agonist addition plates are placed on the platform in the FLIPR and the door closed. A signal test to check background fluorescence and basal fluorescence signal is performed. Laser intensity is adjusted if necessary.
Turning to `O=C1c2cc(CN3CCN(CC(F)(F)F)CC3)c3ccccc3c2CN1C1CCCCC1O` (centres unmarked) [Example 34, 2-(2-hydroxycyclohexyl)-5-{[4-(2,2,2-trifluoroethyl)piperazin-1-yl]methyl}-1,2-dihydro-3H-benzo[e]isoindol-3-one], the EC50 is 1900 nM. Still for that read-out and setting: as for `O=C1c2cc(CN3CCOCC3)c3ccccc3c2CN1C1CCCCC1O` (centres unmarked) [Example 24, 2-(2-hydroxycyclohexyl)-5-(morpholin-4-ylmethyl)-1,2-dihydro-3H-benzo[e]isoindol-3-one], the figure is 150 nM; as for `O=C1c2cc(CN3CCC(c4ccccc4)CC3)c3ccccc3c2CN1C1CCCCC1O` (centres unmarked) [Example 41, 2-(2-hydroxycyclohexyl)-5-[(4-phenylpiperidin-1-yl)methyl]-1,2-dihydro-3H-benzo[e]isoindol-3-one], 1400 nM; as for `N#CC1(c2cccnn2)CCN(Cc2cc3c(c4ccccc24)CN([C@H]2CCCC[C@@H]2O)C3=O)CC1` [Example 52, 1-({2-[(1S,2S)-2-hydroxycyclohexyl]-3-oxo-2,3-dihydro-1H-benzo[e]isoindol-5-yl}methyl)-4-(pyridazin-3-yl)piperidine-4-carbonitrile], 27 nM. On to `CC1CN(Cc2cc3c(c4ccccc24)CN([C@H]2CCCC[C@@H]2O)C3=O)CCN1c1ccccc1` (stereo partly drawn) [Example 78, 2-[(1S,2S)-2-hydroxycyclohexyl]-5-[(3-methyl-4-phenylpiperazin-1-yl)methyl]-1,2-dihydro-3H-benzo[e]isoindol-3-one], for which the EC50 worked out at 370 nM. As for `N#CC1(c2ccccn2)CCN(Cc2cc3c(c4ccccc24)CN([C@@H]2CCCC[C@@H]2O)C3=O)CC1` [Example 47, 1-({2-[(1R,2S)-2-hydroxycyclohexyl]-3-oxo-2,3-dihydro-1H-benzo[e]isoindol-5-yl}methyl)-4-pyridin-2-ylpiperidine-4-carbonitrile], the EC50 came out at 147 nM. For `Cn1cc(N2CCN(Cc3cc4c(c5ccccc35)CN(C3CCOCC3)C4=O)CC2)cn1` [Example 82, 5-{[4-(1-methyl-1H-pyrazol-4-yl)piperazin-1-yl]methyl}-2-(tetrahydro-2H-pyran-4-yl)-1,2-dihydro-3H-benzo[e]isoindol-3-one], the EC50 was found to be 1590 nM. Turning to `N#CC1(c2ccccn2)CCN(Cc2cc3c(c4ccccc24)CN(C2CCCOC2)C3=O)CC1` (centres unmarked) [Example 55, 1-{[3-oxo-2-(tetrahydro-2H-pyran-3-yl)-2,3-dihydro-1H-benzo[e]isoindol-5-yl]methyl}-4-pyridin-2-ylpiperidine-4-carbonitrile], the EC50 came out at 1500 nM. Consider `O=C1c2cc(CN3CCN(c4ccccn4)CC3)c3ccccc3c2CN1c1ccccc1F` [Example 75, 2-(2-fluorophenyl)-5-{[4-(pyridin-2-yl)piperazin-1-yl]methyl}-1,2-dihydro-3H-benzo[e]isoindol-3-one], for which the EC50 came to 78 nM. Same read-out and setting: then `O=C1c2cc(CN3CCCC(F)C3)c3ccccc3c2CN1C1CCCCC1O` (centres unmarked) [Example 17, 5-[(3-fluoropiperidin-1-yl)methyl]-2-(2-hydroxycyclohexyl)-1,2-dihydro-3H-benzo[e]isoindol-3-one], with 320 nM; and `O=C1c2cc(CN3CCCC3)c3ccccc3c2CN1C1CCCCC1O` (centres unmarked) [Example 23, 2-(2-Hydroxycyclohexyl)-5-(pyrrolidin-1-ylmethyl)-1,2-dihydro-3H-benzo[e]isoindol-3-one], with 3800 nM; and `O=C1c2cc(CN3CC(O)C(F)C3)c3ccccc3c2CN1C1CCCCC1O` (centres unmarked) [Example 28, 5-[(3-fluoro-4-hydroxypyrrolidin-1-yl)methyl]-2-(2-hydroxycyclohexyl)-1,2-dihydro-3H-benzo[e]isoindol-3-one], with 1200 nM.

Staying with this test, now noted: Table 2; CHOnfat/hM1 cells, FLIPR, EC20 acetylcholine (3 nM final); read-out: M1 Pot.
Turning to `CCC1c2c(cc(CN3CCC(F)(C#N)CC3)c3cccnc23)C(=O)N1[C@@H]1CCCC[C@@H]1O` (stereo partly drawn) [Example 120, 1-({9-ethyl-8-[(1R,2S)-2-hydroxycyclohexyl]-7-oxo-8,9-dihydro-7H-pyrrolo[3,4-h]quinolin-5-yl}methyl)-4-fluoropiperidine-4-carbonitrile], the EC50 worked out at 21 nM. As to `CCN(CC)Cc1cc2c(c3ncccc13)CN(C1CCCCC1O)C2=O` (centres unmarked) [Example 88, 5-[(diethylamino)methyl]-8-(2-hydroxycyclohexyl)-8,9-dihydro-7H-pyrrolo[3,4-h]quinolin-7-one], the EC50 is 4000 nM. Turning to `CC1c2c(cc(CN3CCN(c4cnn(C)c4)CC3)c3cccnc23)C(=O)N1C1CCCCC1O` (centres unmarked) [Example 158, 8-(2-hydroxycyclohexyl)-9-methyl-5-{[4-(1-methyl-1H-pyrazol-4-yl)piperazin-1-yl]methyl}-8,9-dihydro-7H-pyrrolo[3,4-h]quinolin-7-one], the EC50 was 70 nM. For `N#CC1CCN(Cc2cc3c(c4ncccc24)CN([C@H]2CCCC[C@@H]2O)C3=O)CC1` [Example 92, 1-({8-[(1S,2S)-2-hydroxycyclohexyl]-7-oxo-8,9-dihydro-7H-pyrrolo[3,4-h]quinolin-5-yl}methyl)piperidine-4-carbonitrile], the EC50 came out at 72 nM. In the case of `O=C1c2cc(CN3CCC(c4ccccc4)CC3)c3cccnc3c2CN1C1CCCCC1O` (centres unmarked) [Example 139, 8-(2-hydroxycyclohexyl)-5-[(4-phenylpiperidin-1-yl)methyl]-8,9-dihydro-7H-pyrrolo[3,4-h]quinolin-7-one], the EC50 was 85 nM.

The test is the same for the next values; noted with them: Table 3; inflection point calculated from the FLIPR values; EC20 acetylcholine (3 nM final); read-out: IP Value.
On to `N#CC1(c2ccccn2)CCN(Cc2cc3c(c4ccccc24)CN([C@H]2CCCC[C@@H]2O)C3=O)CC1` [Example 1, 1-({2-[(1S,2S)-2-Hydroxycyclohexyl]-3-oxo-2,3-dihydro-1H-benzo[e]isoindol-5-yl}methyl)-4-(pyridine-2-yl)piperidine-4-carbonitrile], for which the EC50 is 10 nM. Still for that read-out and setting: as for `COc1cccc(C2(C#N)CCN(Cc3cc4c(c5ccccc35)CN([C@H]3CCCC[C@@H]3O)C4=O)CC2)n1` [Example 6, 1-({2-[(1S,2S)-2-Hydroxycyclohexyl]-3-oxo-2,3-dihydro-1H-benzo[e]isoindol-5-yl}methyl)-4-(6-methoxypyridin-2-yl)piperidine-4-carbonitrile], the figure is 65 nM; as for `O=C1c2cc(CN3CCC(F)(F)CC3)c3cccnc3c2CN1[C@H]1COCC[C@@H]1O` [Example 8, 1,5-Anhydro-2,4-dideoxy-2-{5-[(4,4-difluoropiperidin-1-yl)methyl]-7-oxo-7,9-dihydro-8H-pyrrolo[3,4-h]quinolin-8-yl}-L-threo-pentitol], 41 nM.
